Where “and” joins values, the source holds several entries; their conditions need not be identical. Equal entries are not always repeated. Inconclusive results and toxic doses are left out. Rule for the calls: active = survival T/C of 150% or more; inactive = T/C below 125% in these data.
Test system: P388 leukemia ip, CD2F1 mice, survival T/C
Assay: NCI In Vivo Anticancer Drug Screen. Data for tumor model P388 Leukemia (intraperitoneal) in CD2F1 (CDF1) mice
Conditions: endpoint: median survival time, higher = longer survival
Summary of the method: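 Mice carrying the transplanted tumor received test compound or vehicle. Survival was recorded in each group, and the value is the treated-group measurement divided by that of the vehicle-treated control group.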

[1] = dose: 50.0 mg/kg/injection, schedule: Q01DX009 (ip), vehicle: Klucel (hydroxypropylcellulose) (HPC)
[2] = dose: 100.0 mg/kg/injection, schedule: Q01DX009 (ip), vehicle: Klucel (hydroxypropylcellulose) (HPC)
[3] = dose: 200.0 mg/kg/injection, schedule: Q01DX009 (ip), vehicle: Klucel (hydroxypropylcellulose) (HPC)
[4] = dose: 50.0 mg/kg/injection, schedule: Q01DX009 (ip), vehicle: saline with Tween-80
[5] = dose: 100.0 mg/kg/injection, schedule: Q01DX009 (ip), vehicle: saline with Tween-80
[6] = dose: 200.0 mg/kg/injection, schedule: Q01DX009 (ip), vehicle: saline with Tween-80
[7] = dose: 6.25 mg/kg/injection, schedule: Q01DX005 (ip), vehicle: saline with Tween-80
[8] = dose: 12.5 mg/kg/injection, schedule: Q01DX005 (ip), vehicle: saline with Tween-80
[9] = dose: 50.0 mg/kg/injection, schedule: Q01DX005 (ip), vehicle: saline with Tween-80
[10] = dose: 100.0 mg/kg/injection, schedule: Q01DX005 (ip), vehicle: saline with Tween-80
[11] = dose: 50.0 mg/kg/injection, schedule: Q01DX005 (ip), vehicle: Klucel (hydroxypropylcellulose) (HPC)
[12] = dose: 100.0 mg/kg/injection, schedule: Q01DX005 (ip), vehicle: Klucel (hydroxypropylcellulose) (HPC)
[13] = dose: 200.0 mg/kg/injection, schedule: Q01DX005 (ip), vehicle: Klucel (hydroxypropylcellulose) (HPC)
[14] = dose: 6.25 mg/kg/injection, schedule: Q01DX009 (ip), vehicle: saline with Tween-80
[15] = dose: 60.0 mg/kg/injection, schedule: Q01DX005 (ip), vehicle: saline with Tween-80
[16] = dose: 120.0 mg/kg/injection, schedule: Q01DX005 (ip), vehicle: saline with Tween-80
[17] = dose: 240.0 mg/kg/injection, schedule: Q01DX005 (ip), vehicle: saline with Tween-80
[18] = dose: 200.0 mg/kg/injection, schedule: Q01DX005 (ip), vehicle: saline with Tween-80
[19] = dose: 25.0 mg/kg/injection, schedule: Q01DX009 (ip), vehicle: saline with Tween-80

Measured: T/C

N#CC12C3C4C5C3C1C(C42)n1c(=O)n(-c2ccccc2)c(=O)n15 (stereo not drawn)
inactive: dose: 12.5 mg/kg/injection, schedule: Q01DX009 (ip), vehicle: Klucel (hydroxypropylcellulose) (HPC) 89 % of control and 90 % of control | dose: 25.0 mg/kg/injection, schedule: Q01DX009 (ip), vehicle: Klucel (hydroxypropylcellulose) (HPC) 89 % of control and 92 % of control | [1] 90 % of control and 95 % of control | [2] 98 % of control | [3] 95 % of control

CCCCCCC(=O)/C=C/c1cccc(OCc2ccc(Cl)c(Cl)c2)c1
inactive: [4] 115 % of control | [5] 90 % of control | [6] 97 % of control

Cc1ccc(S(=O)(=O)S(=O)(=O)c2ccc(C)cc2)cc1
inactive: dose: 100.0 mg/kg/injection, schedule: Q04DX002 (ip), vehicle: saline with Tween-80 96 % of control | dose: 200.0 mg/kg/injection, schedule: Q04DX002 (ip), vehicle: saline with Tween-80 99 % of control | dose: 400.0 mg/kg/injection, schedule: Q04DX002 (ip), vehicle: saline with Tween-80 104 % of control

O=c1[nH]cnc2c1ccc1[nH]ncc12
inactive: [7] 88 % of control | [8] 90 % of control | dose: 25.0 mg/kg/injection, schedule: Q01DX005 (ip), vehicle: saline with Tween-80 86 % of control | [9] 97 % of control | [10] 99 % of control

Cc1ccc2cccc(OC(=O)c3c(F)cccc3Cl)c2n1
inactive: [11] 99 % of control | [12] 96 % of control | [13] 99 % of control

COc1cc2cc(c1Cl)N(C)C(=O)CC(O)C1(C)OC1C(C)C1CC(O)(NC(=O)O1)C(OC)/C=C/C=C(C)C2OC (stereo not drawn)
inactive: dose: 4.0 micrograms/kg/injection, schedule: Q01DX009 (ip), vehicle: distilled water + Tween-80 + alcohol 97 % of control | dose: 8.0 micrograms/kg/injection, schedule: Q01DX009 (ip), vehicle: distilled water + Tween-80 + alcohol 104 % of control | dose: 16.0 micrograms/kg/injection, schedule: Q01DX009 (ip), vehicle: distilled water + Tween-80 + alcohol 97 % of control | dose: 32.0 micrograms/kg/injection, schedule: Q01DX009 (ip), vehicle: distilled water + Tween-80 + alcohol 107 % of control | dose: 32.0 micrograms/kg/injection, schedule: Q01DX009 (ip), vehicle: distilled water + alcohol 99 % of control | dose: 64.0 micrograms/kg/injection, schedule: Q01DX009 (ip), vehicle: distilled water + alcohol 101 % of control | dose: 128.0 micrograms/kg/injection, schedule: Q01DX009 (ip), vehicle: distilled water + alcohol 101 % of control

CCCCCCCC/C=C/CCCCCCCC(=O)N(CCOC(=O)C(C)(C)C)CCOC(=O)C(C)(C)C
inactive: [1] 104 % of control | [2] 112 % of control | [3] 111 % of control

CC(=O)OC(C)C1C2=C(C(=O)CC1(C)O)C(=O)c1c(ccc(-c3ccc4c(c3O)C(=O)C3=C(C4=O)C(C(C)OC(C)=O)C(C)(O)CC3=O)c1O)C2=O (stereo not drawn)
inactive: dose: 3.13 mg/kg/injection, schedule: Q01DX009 (ip), vehicle: saline with Tween-80 122 % of control | [14] 119 % of control

COC(=O)C1Cc2c([nH]c3ccccc23)C(C)(C)N1 (stereo not drawn)
inactive: dose: 25.0 mg/kg/injection, schedule: Q01DX009 (ip), vehicle: suspension in saline 99 % of control | dose: 50.0 mg/kg/injection, schedule: Q01DX009 (ip), vehicle: suspension in saline 93 % of control | dose: 100.0 mg/kg/injection, schedule: Q01DX009 (ip), vehicle: suspension in saline 93 % of control

COc1ccc(N2CC=C(c3ccccc3)OP2(=O)N2CC2)cc1 (stereo not drawn)
inactive: [11] 106 % of control | [12] 105 % of control | [13] 95 % of control

O=C1CC2CCC1(CS(=O)(=O)OCCCCOS(=O)(=O)CC13CCC(CC1=O)C3)C2
inactive: [15] 103 % of control | [16] 103 % of control | [17] 93 % of control

C=CCC12CC(C)OC1=Nc1ccccc1NC2=O (stereo not drawn)
inactive: [9] 98 % of control | [10] 100 % of control | [18] 104 % of control

COC(=O)c1cc(NC(=O)Oc2ccccn2)cc(C(=O)OC)c1
inactive: dose: 50.0 mg/kg/injection, schedule: Q01DX009 (ip), vehicle: olive oil, sesame oil, peanut oil 98 % of control | dose: 100.0 mg/kg/injection, schedule: Q01DX009 (ip), vehicle: olive oil, sesame oil, peanut oil 97 % of control | dose: 200.0 mg/kg/injection, schedule: Q01DX009 (ip), vehicle: olive oil, sesame oil, peanut oil 99 % of control

COc1ccc(C(C)c2cc3c(cc2OC(C)O)OCO3)cc1 (stereo not drawn)
inactive: [15] 92 % of control | [16] 94 % of control | [17] 97 % of control

Cc1ccc(N=NC2Sc3nc4ccccc4n3C2=O)cc1 (stereo not drawn)
inactive: dose: 60.0 mg/kg/injection, schedule: Q01DX005 (ip), vehicle: Klucel (hydroxypropylcellulose) (HPC) 101 % of control | dose: 120.0 mg/kg/injection, schedule: Q01DX005 (ip), vehicle: Klucel (hydroxypropylcellulose) (HPC) 97 % of control | dose: 240.0 mg/kg/injection, schedule: Q01DX005 (ip), vehicle: Klucel (hydroxypropylcellulose) (HPC) 88 % of control

NC(=S)c1ccc(N=Cc2cccs2)cc1
inactive: dose: 100.0 mg/kg/injection, schedule: Q01DX001 (ip), vehicle: Klucel (hydroxypropylcellulose) (HPC) 108 % of control | dose: 200.0 mg/kg/injection, schedule: Q01DX001 (ip), vehicle: Klucel (hydroxypropylcellulose) (HPC) 105 % of control | dose: 400.0 mg/kg/injection, schedule: Q01DX001 (ip), vehicle: Klucel (hydroxypropylcellulose) (HPC) 102 % of control

CCC(SC)(SC)C(=O)N(C)c1ccccc1
inactive: [19] 100 % of control | [4] 104 % of control | [5] 100 % of control

COc1cc(Br)cc(OC)c1N=Cc1ccccc1
inactive: [4] 102 % of control | [5] 97 % of control | [6] 100 % of control

O=C1c2ccccc2C(=O)c2c(O)c(CBr)c(CBr)c(O)c21
inactive: [9] 96 % of control | [10] 104 % of control | [18] 95 % of control

NC(N)=N/N=C/c1ccc(-c2ccccc2)cc1
inactive: [14] 104 % of control | dose: 6.25 mg/kg/injection, schedule: Q04DX003 (ip), vehicle: saline with Tween-80 100 % of control | dose: 12.5 mg/kg/injection, schedule: Q01DX009 (ip), vehicle: saline with Tween-80 104 % of control | dose: 12.5 mg/kg/injection, schedule: Q04DX003 (ip), vehicle: saline with Tween-80 100 % of control | dose: 25.0 mg/kg/injection, schedule: Q04DX003 (ip), vehicle: saline with Tween-80 100 % of control

O=c1[nH]c2cc(Cl)ccc2c(CCl)c1Cl
inactive: [19] 110 % of control | [4] 110 % of control

CN1CCc2cc3c(cc2[C@H]1[C@@H]1OC(=O)c2c1ccc1c2OCO1)OCO3
inactive: [7] 101 % of control | [8] 97 % of control

— PubChem BioAssay AID330 (DTP/NCI, 2004)
